Here are results for 1 molecule from PMC6079302, “Investigating the Mechanism of Action of Diketopiperazines Inhibitors of the Burkholderia cenocepacia Quorum Sensing Synthase CepI: A Site-Directed Mutagenesis Study” (Frontiers in Pharmacology, 2018).

Structures are written as SMILES.

For one assay, the system named is B. cenocepacia J2315. Nature of the assay: Proteomic analysis (2-DE, LC-MS/MS) of treated cells compared with the ΔcepI strain. The format is cell-based, Burkholderia cenocepacia. The settings on record: J2315 cells treated with 25 μM 8b, compared with untreated J2315; same as ΔcepI profile. As to the method:
Burkholderia cenocepacia ΔcepI ([Udine et al., 2013]) and J2315 (with or without 25 μM of 8b compound) were grown in 10 ml of LB medium until OD600 nm > 2. Cells were then harvested, resuspended in 0.2 ml of Tris-HCl 50 mM, pH 7.5, disrupted by sonication, and centrifuged at 12,000 rpm for 1 h at 4°C.
The amount of proteins present in the supernatant was quantified by bicinchoninic acid method ([Smith et al., 1985]), then 300 μg were precipitated with 10% (v/v) trichloroacetic acid. The obtained protein pellet was dissolved in 125 μL of rehydration buffer (8 M urea, 4% CHAPS (w/v), 65 mM DTE, 0.8% carrier ampholytes (v/v) and 0.5% bromophenol blue) and loaded onto 7 cm IPG strips, with nonlinear pH 3–10 gradient range (GE Healthcare), and strips rehydrated for 1 h at 20°C. The first-dimensional IEF was carried out at 15°C using an Ettan IPGphor system (GE Healthcare), by applying 30 V for 8 h, 120 V for 1 h, 500 V for 0.5 h, 1000 V for 0.5 h and 5000 V for 6 h, for a total of 29–30 kVh. […] Digital images of stained gels were acquired using VersaDoc Imaging Model 3000 (BioRad) and then subjected to quali/quantitative analysis using the PD Quest (BioRad) version 8.0.1 software. […] The software then determined the amount of spots present and calculated their intensity by applying the following algorithm: peak value (ODs/image units) ^∗σx^∗σy (standard deviations in x and y). […]

The next assay concerns the target T1, CepI wild type (Burkholderia cenocepacia, UniProt B4EMD2).
T1 sequence (B4EMD2 1-202): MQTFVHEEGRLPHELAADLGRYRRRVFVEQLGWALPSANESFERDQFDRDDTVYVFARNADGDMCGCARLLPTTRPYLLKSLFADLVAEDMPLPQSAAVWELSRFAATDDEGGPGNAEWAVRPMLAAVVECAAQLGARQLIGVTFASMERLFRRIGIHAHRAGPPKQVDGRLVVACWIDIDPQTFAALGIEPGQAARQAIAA
The assay can be described thus: CepI activity assay (DCPIP), IC50 determination, wild type enzyme. The format is biochemical. The settings on record: 70 μM C8-ACP, 40 μM SAM, 4 μM CepI, read-out: compound 8b IC50. As for the experimental part:
Wild type and mutant CepI were expressed in Escherichia coli BL21(DE3) cells and purified as previously described ([Scoffone et al., 2016]).
CepI activity was determined according to [Christensen et al. (2013)]. Reaction mixtures contained 50 mM 4-(2-hydroxyethyl)-1-piperazineethanesulfonic acid (HEPES) pH 7.5, 0.005% Nonidet P-40, 0.13 mM 2,6-dichlorophenylindophenol (DCPIP), 70 μM Octanoyl-ACP (C8-ACP, prepared as reported previously) ([Quadri et al., 1998]; [Cronan and Thomas, 2009]), 40 μM S-adenosyl methionine (SAM), 4 μM CepI.
IC50 was determined measuring the enzyme activity in presence of different concentrations of compound, and values determined with the following equation ([Copeland, 2000]), where A[I] is the enzyme activity at inhibitor concentration [I] and A[0] is the enzyme activity without inhibitor.

The target of another assay is T2, CepI R24Q mutant (Burkholderia cenocepacia, UniProt B4EMD2, R24Q).
T2 sequence (B4EMD2 1-202 R24Q): T1 sequence (B4EMD2 1-202)
The assay can be described thus: CepI activity assay (DCPIP), IC50 determination, R24Q mutant. The assay is classed as biochemical.

In the next assay the target is T3, CepI Q46R mutant (Burkholderia cenocepacia, UniProt B4EMD2, Q46R).
T3 sequence (B4EMD2 1-202 Q46R): T1 sequence (B4EMD2 1-202)
Nature of the assay: CepI activity assay (DCPIP), IC50 determination, Q46R mutant. The assay is classed as biochemical.

The target of another assay is T4, CepI S41R mutant (Burkholderia cenocepacia, UniProt B4EMD2, S41R).
T4 sequence (B4EMD2 1-202 S41R): T1 sequence (B4EMD2 1-202)
Nature of the assay: CepI activity assay (DCPIP), IC50 determination, S41R mutant. The assay is classed as biochemical. Conditions: compound 8b IC50, CepI S41R; 70 μM C8-ACP, 40 μM SAM, 4 μM CepI.

In a further assay the target is T5, CepI E40Q mutant (Burkholderia cenocepacia, UniProt B4EMD2, E40Q).
T5 sequence (B4EMD2 1-202 E40Q): T1 sequence (B4EMD2 1-202)
Nature of the assay: CepI activity assay (DCPIP), IC50 determination, E40Q mutant. The assay is classed as biochemical.

For another assay, the target named is T6, CepI S41A mutant (Burkholderia cenocepacia, UniProt B4EMD2, S41A).
T6 sequence (B4EMD2 1-202 S41A): T1 sequence (B4EMD2 1-202)
Nature of the assay: CepI activity assay (DCPIP), IC50 determination, S41A mutant. The format is biochemical.

`O=C1C=CC(=O)C(C2NC(=O)[C@H](Cc3ccccc3)NC2=O)=C1` (stereo partly drawn) [8b, (3S)-3-Benzyl-6-(3,6-dioxocyclohexa-1,4-dien-1-yl)piperazine-2,5-dione]: the “density of the 2-DE protein spot of the giant cable pilus protein CblA” value in the assay with B. cenocepacia J2315 is “higher density”. Also, the IC50 at CepI wild type worked out at 7.2 ± 0.2 µM; at CepI R24Q mutant, 147 ± 17 µM; against CepI Q46R mutant, 19.2 ± 3.5 µM; against CepI S41R mutant, 1070 ± 75 µM; at CepI E40Q mutant, 53 ± 2.6 µM; against CepI S41A mutant, 113 ± 11 µM. Also, the “compound 8b IC50” value on CepI Q46R mutant (CepI Q46R, 70 μM C8-ACP, 40 μM SAM, 4 μM CepI) is listed as “comparable to wild type CepI”.
